# In US20170333591A9, “ABSORBENT ARTICLE COMPRISING MALODOR REDUCTION COMPOSITIONS” (The Procter & Gamble Company, priority 2014, published 2017):
# Test: Log of liquid dish neat product liquid-air partition coefficient
# Format: physicochemical
# Conditions: for Log of liquid dish neat product liquid-air partition coefficient (Comment Code K/L): code letter within the Comment Code cell; for Log of liquid dish neat product liquid-air partition coefficient (Comment Code): code letters K/L of the Comment Code
SMILES,Log of liquid dish neat product liquid-air partition coefficient (Comment Code K/L),Comment Code: Log of liquid dish neat product liquid-air partition coefficient,Log of liquid dish neat product liquid-air partition coefficient (Comment Code)
CC/C=C\C/C=C\CCO [Material 546],K (Log of liquid dish neat product liquid-air partition coefficient greater than or equal to 7),–,–
CCC(=O)OCC=Cc1ccccc1 [Material 548],K (Log of liquid dish neat product liquid-air partition coefficient greater than or equal to 7),–,–
N#CC=Cc1ccccc1 [Material 549],–,K (Log of liquid dish neat product liquid-air partition coefficient greater than or equal to 7),–
CC(C)C(=O)OCC=Cc1ccccc1 [Material 550],K (Log of liquid dish neat product liquid-air partition coefficient greater than or equal to 7),–,–
O=COCC=Cc1ccccc1 [Material 551],K (Log of liquid dish neat product liquid-air partition coefficient greater than or equal to 7),–,–
CC(=O)OCC=Cc1ccccc1 [Material 553],K (Log of liquid dish neat product liquid-air partition coefficient greater than or equal to 7),–,–
O=C/C=C/c1ccccc1 [Material 554],–,K (Log of liquid dish neat product liquid-air partition coefficient greater than or equal to 7),–
OCC=Cc1ccccc1 [Material 555],K (Log of liquid dish neat product liquid-air partition coefficient greater than or equal to 7),–,–
N#C/C=C/c1ccccc1 [Material 556],–,K (Log of liquid dish neat product liquid-air partition coefficient greater than or equal to 7),–
Cc1cc(O)cc(C)c1Cl [Material 557],–,K (Log of liquid dish neat product liquid-air partition coefficient greater than or equal to 7),–
C=CCCC(=O)/C=C/C1C(C)=CCCC1(C)C (stereo not shown) [Material 559],K (Log of liquid dish neat product liquid-air partition coefficient greater than or equal to 7),–,–
CC1=C(CCC(C)C=O)C(C)(C)CCC1 (stereo not shown) [Material 560],K (Log of liquid dish neat product liquid-air partition coefficient greater than or equal to 7),–,–
CC(=O)c1cc(C(C)(C)C)cc2c1CCC2(C)C [Material 563],–,–,K (Log of liquid dish neat product liquid-air partition coefficient greater than or equal to 7)
COC1(C)CCC23CC1C(C)(C)C2CCC3C (stereo not shown) [Material 565],–,K (Log of liquid dish neat product liquid-air partition coefficient greater than or equal to 7),K (Log of liquid dish neat product liquid-air partition coefficient greater than or equal to 7)
CC1CCC2C(C)(C)C3CC12CCC3(C)OC=O (stereo not shown) [Material 566],–,K (Log of liquid dish neat product liquid-air partition coefficient greater than or equal to 7),K (Log of liquid dish neat product liquid-air partition coefficient greater than or equal to 7)
CC(=O)O[C@]1(C)CC[C@@]23C[C@@H]1C(C)(C)[C@@H]2CC[C@H]3C [Material 567],–,K (Log of liquid dish neat product liquid-air partition coefficient greater than or equal to 7),K (Log of liquid dish neat product liquid-air partition coefficient greater than or equal to 7)
CC1=CCCC2(C)OC2CCC(C)=CCC1 (stereo not shown) [Material 568],–,–,K (Log of liquid dish neat product liquid-air partition coefficient greater than or equal to 7)
C[C@@H]1CC[C@H]2C(C)(C)[C@H]3C[C@@]12CC[C@@]3(C)O [Material 569],–,K (Log of liquid dish neat product liquid-air partition coefficient greater than or equal to 7),K (Log of liquid dish neat product liquid-air partition coefficient greater than or equal to 7)
CC1=CCC(C23CCCC(C)(C2)OC3)C1(C)C (stereo not shown) [Material 570],–,K (Log of liquid dish neat product liquid-air partition coefficient greater than or equal to 7),K (Log of liquid dish neat product liquid-air partition coefficient greater than or equal to 7)
CC1C(C)(C)C2=C(C(=O)CCC2)C1(C)C (stereo not shown) [Material 572],–,–,K (Log of liquid dish neat product liquid-air partition coefficient greater than or equal to 7)
CC(=O)OC12CCCC(C)(CCC3C1CC3(C)C)C2 (stereo not shown) [Material 573],–,K (Log of liquid dish neat product liquid-air partition coefficient greater than or equal to 7),K (Log of liquid dish neat product liquid-air partition coefficient greater than or equal to 7)
CC12CCCC(O)(C1)C1CC(C)(C)C1CC2 (stereo not shown) [Material 574],–,K (Log of liquid dish neat product liquid-air partition coefficient greater than or equal to 7),K (Log of liquid dish neat product liquid-air partition coefficient greater than or equal to 7)
Cc1ccc(C(C)C)cc1O [Material 575],–,K (Log of liquid dish neat product liquid-air partition coefficient greater than or equal to 7),–

SMILES,Log of liquid dish neat product liquid-air partition coefficient (Comment Code K/L),Comment Code: Log of liquid dish neat product liquid-air partition coefficient,Log of liquid dish neat product liquid-air partition coefficient (Comment Code)
C=C(C)C1CC=C(C)C(OC(C)=O)C1 (stereo not shown) [Material 577],–,–,K (Log of liquid dish neat product liquid-air partition coefficient greater than or equal to 7)
CCOCCOCCO [Material 579],–,K (Log of liquid dish neat product liquid-air partition coefficient greater than or equal to 7),–
CCCCCCCCCC(=O)O [Material 582],–,–,K (Log of liquid dish neat product liquid-air partition coefficient greater than or equal to 7)
COc1ccc(CC(C)C=O)cc1 (stereo not shown) [Material 586],–,–,K (Log of liquid dish neat product liquid-air partition coefficient greater than or equal to 7)
CC12CCC(C(=O)C1=O)C2(C)C (stereo not shown) [Material 587],–,–,K (Log of liquid dish neat product liquid-air partition coefficient greater than or equal to 7)
CCCCOC(=O)C(C)OC(=O)CCC (stereo not shown) [Material 595],–,–,K (Log of liquid dish neat product liquid-air partition coefficient greater than or equal to 7)
C=CCCCCCCCCC(=O)OCCCC [Material 599],–,–,K (Log of liquid dish neat product liquid-air partition coefficient greater than or equal to 7)
CC1=CCC(CCC(C)CO)C1(C)C (stereo not shown) [Material 600],–,–,K (Log of liquid dish neat product liquid-air partition coefficient greater than or equal to 7)
CC(C)(C)c1ccc(CCC=O)cc1 [Material 601],–,–,K (Log of liquid dish neat product liquid-air partition coefficient greater than or equal to 7)
CC1=C(C/C=C(\C)C=O)C(C)(C)CCC1 [Material 602],–,K (Log of liquid dish neat product liquid-air partition coefficient greater than or equal to 7),–
CC(C)C(=O)OC1CC2CCC1(C)C2(C)C (stereo not shown) [Material 603],–,K (Log of liquid dish neat product liquid-air partition coefficient greater than or equal to 7),K (Log of liquid dish neat product liquid-air partition coefficient greater than or equal to 7)
C=C1C2CCC(C)(OCC)C1CCC2(C)C (stereo not shown) [Material 606],–,–,K (Log of liquid dish neat product liquid-air partition coefficient greater than or equal to 7)
CCOCOC1CCCCCCCCCCC1 [Material 607],–,–,K (Log of liquid dish neat product liquid-air partition coefficient greater than or equal to 7)
CC(C)=CCCC(C)=C1CC=C(C)CC1 [Material 608],–,–,K (Log of liquid dish neat product liquid-air partition coefficient greater than or equal to 7)
CC1=CC(=O)CC(C)C12CCC(=C(C)C)C2 (stereo not shown) [Material 610],–,–,K (Log of liquid dish neat product liquid-air partition coefficient greater than or equal to 7)
C=C(C)C1CCC(C)(OC(C)=O)CC1 (stereo not shown) [Material 611],–,–,K (Log of liquid dish neat product liquid-air partition coefficient greater than or equal to 7)
C=C(C)C1CCC(C)(O)CC1 (stereo not shown) [Material 612],–,–,K (Log of liquid dish neat product liquid-air partition coefficient greater than or equal to 7)
C=CC(=C)CCC=C(C)CCC=C(C)C=O [Material 613],–,–,K (Log of liquid dish neat product liquid-air partition coefficient greater than or equal to 7)
C=C1C=CC(C(C)CCC=C(C)C)CC1 (stereo not shown) [Material 614],–,–,K (Log of liquid dish neat product liquid-air partition coefficient greater than or equal to 7)
C=C(C)C1CCC2(C)CCCC(=C)C2C1 (stereo not shown) [Material 615],–,–,K (Log of liquid dish neat product liquid-air partition coefficient greater than or equal to 7)
C=C1C2CCC(C2)C1(C)CCC=C(C)CO (stereo not shown) [Material 616],–,K (Log of liquid dish neat product liquid-air partition coefficient greater than or equal to 7),K (Log of liquid dish neat product liquid-air partition coefficient greater than or equal to 7)
CC1=C2CCC3(C)OC3C2C(C)(C)CCC1 (stereo not shown) [Material 624],–,K (Log of liquid dish neat product liquid-air partition coefficient greater than or equal to 7),K (Log of liquid dish neat product liquid-air partition coefficient greater than or equal to 7)
